Test results reported in patent US8017350B2, “Glimepiride- and insulin-induced glycosylphosphatidylinositol-specific phospholipase C regulation” (Sanofi-Aventis Deutschland GmbH, priority 2004, dated 2011).

Target: T1, bacterial PC-PLC (Bacillus cereus) (Bacillus cereus, UniProt P09598)
T1 construct: purchased SigmalAldrich (Deisenhofen, Germany)
Assay: PC-PLC assay (dipalmitoyllecithin)
Type: biochemical
Settings: 50 μM
Protocol: Hormone-sensitive lipase (HSL) and lipoprotein lipase (LPL) were measured using a radiolabeled triolein droplet emulsion as described in “Vertesy et al., (2002) Journal Antibiotics 55:480-494”. Pancreatic lipase (PL) was determined by incubation of 0.25 mmol tributyrin in 2 ml of 5 mM Tris/HCl (pH 6.5), 6 mM sodium taurodeoxycholate, 150 mM NaCl, 1 mM CaCl2 with porcine PL and colipase in the same buffer using a recording pH stat (stirring at 1000 rpm at 25° C.) with the pH adjusted to 6.5. PC-PLC was assayed by incubation of 0.2 ml of 10 mM dipalmitoyllecithin, 0.1 ml of 10 mM SDC and 0.1 ml of 0.03 M CaCl2 with bacterial PC-PLC (in 50 mM Tris/HCl, pH 7.5, 0.1% BSA) for 10 min at 37° C. The reaction was terminated by addition of 0.1 ml of 50% TCA and subsequently of 2.5 ml of […]. After centrifugation (1500×g, 15 min), 0.2-ml portions of the upper methanol/water phase (˜1.33 ml) were removed, supplemented with 0.5 ml of 60% HClO4, then heated at 170° C. for 1 h and finally analyzed for inorganic phosphate. Mammalian PI-PLC was measured by incubation of 0.1 ml of 10 mM PI, 0.1 ml of 0.8% sodium deoxycholate, 0.1% BSA, 0.2 ml of 100 mM sodium borate (pH 7.5) and rat liver PI-PLC for 20 min at 37° C. The reaction was terminated and further processed as described for the PC-PLC. […] Radioactive phosphatidic acid was detected by phosphorimaging. […]

T1 sequence (P09598 39-283 limits assumed): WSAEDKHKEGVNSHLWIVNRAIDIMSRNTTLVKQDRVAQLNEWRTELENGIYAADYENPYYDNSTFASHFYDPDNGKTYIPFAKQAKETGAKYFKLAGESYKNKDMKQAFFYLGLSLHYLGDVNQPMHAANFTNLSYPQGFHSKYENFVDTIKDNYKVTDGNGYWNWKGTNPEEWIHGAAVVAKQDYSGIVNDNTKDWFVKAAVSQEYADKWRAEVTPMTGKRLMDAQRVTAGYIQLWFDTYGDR

**Q.** `CCCCCCCCCCCCP1(=O)O[C@@H]2[C@H](O)[C@@H](O)[C@H](O)[C@@H](O)[C@@H]2O1` (stereo partly shown) [GPI-2350, myo-inositol-1,2-cyclo-dodecylphosphonic acid] was tested. Which “effect on PC-PLC” value did it give?
**A.** Its value is “not significantly affected”.
